Test results published in patent publication US8729084B2, “Benzofuranyl analogues as GPR119 modulators” (Bristol-Myers Squibb Company, priority 2010, dated 2014).

These compounds were tested against T1, chimeric human/mouse GPR119 (Homo sapiens, UniProt Q8TDV5, A235T/C313R/C323Y/E253K/F304I/F307L/G211A/G245S/H255C/K284R/L224V/L258Q/L288Q/L301F/P218V/P318T/Q252H/R262K/S214P/S219N/S228A/S309P/S322A/T217S/T239S/V227I/V300F) (assay: Tet-inducible cAMP assay (cAMP accumulation, HTRF)). Settings: not given.
T1 construct: the first 198 amino acids of human GPR119; the C-terminal 137 amino acids of the mouse receptor; expressed in transfected cells
T1 sequence (Q8TDV5 with tags, fused parts or gaps G211A/S214P/T217S/P218V/S219N/L224V/V227I/S228A/A235T/T239S/G245S/Q252H/E253K/H255C/L258Q/R262K/K284R/L288Q/V300F/L301F/F304I/F307L/S309P/C313R/P318T/S322A/C323Y): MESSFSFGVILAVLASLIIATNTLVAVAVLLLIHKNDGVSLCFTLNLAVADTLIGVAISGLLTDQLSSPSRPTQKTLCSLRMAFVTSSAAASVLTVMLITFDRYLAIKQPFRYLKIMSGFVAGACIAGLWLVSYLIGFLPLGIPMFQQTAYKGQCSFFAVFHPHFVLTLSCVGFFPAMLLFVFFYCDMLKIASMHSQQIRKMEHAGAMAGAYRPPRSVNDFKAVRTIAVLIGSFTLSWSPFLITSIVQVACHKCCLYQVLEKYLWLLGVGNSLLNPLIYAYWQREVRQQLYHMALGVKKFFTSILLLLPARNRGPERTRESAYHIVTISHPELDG
Format: cell-based
Protocol: The in vitro modulation of recombinant human GPR119 was determined as follows.
A human-mouse chimeric GPR119 expression construct encoding 3 copies of the FLAG epitope tag, the first 198 amino acids of human GPR119 and the C-terminal 137 amino acids of the mouse receptor was cloned into a tetracycline inducible vector pcDNA5/FRT/TO (Invitrogen #V6520-20), which includes a hygromycin-resistance marker. Tightly controlled receptor expression was achieved by stable integration of this construct into the genome of a specific host cell line, Flp-In-T-Rex-HEK293, expressing the tetracycline repressor (Invitrogen). Once a stable hygromycin-resistant cell line was generated, the cells were maintained at 37° C. in a humidified 5% CO2 atmosphere in culture medium consisting of Dulbecco's modified Eagle's medium (DMEM; Invitrogen #11960) supplemented with 2 mM L-glutamine, 10% fetal bovine serum, 200 μg/ml hygromycin B, and 15 μg/ml blasticidin.
Forty-eight hours prior to the cAMP accumulation assay, cells stably expressing the chimeric human/mouse GPR119 construct were seeded at a density of 4×10^3 cells/well in 384 well poly-D-lysine coated solid white plates (BD #35-6661) and grown at 37° C. in a humidified 5% CO2 atmosphere in culture medium supplemented with 1 μg/ml tetracycline to induce expression of the receptor. On the day of the assay, medium was removed and cells were incubated for 50 min. at 37° C. in a humidified 5% CO2 atmosphere in 20 μl/well of assay buffer (phosphate-buffered saline with Ca^2+ and Mg^2+, 12 mM glucose, 0.1 mM isobutyl-methyl-xanthine, 0.1% fatty-acid free bovine serum albumin) with the desired concentration of compound added from a concentrated stock dissolved in dimethyl sulfoxide (DMSO) to give a final concentration of 1% DMSO in the assay. cAMP accumulation was measured using the CisBio homogeneous time resolved fluorescence (HTRF) assay kit (#62AM2PEC) following the manufacturer's protocol. Briefly, 10 μl each of the cAMP-HTRF fluorescence detection reagents were added to each well, and the samples were incubated for 40 min. at room temperature. Fluorescence was excited at 320 nm and measured at 665 and 620 nm using the Envision instrument (Perkin Elmer), the fluorescence ratio of 665/620 was calculated and converted to nanomolar concentrations of cAMP in each well by interpolation from a cAMP standard curve. The concentration-response curves and EC50 values were calculated with a four parameter logistic curve fit equation utilizing Excel/XLfit software (Microsoft and IDBS). The EC50 value was calculated as the concentration of agonist which increased the cAMP concentration to a value halfway between the baseline and the maximum.
Compounds of the present invention were tested in the Tet-inducible cAMP assay described immediately above and the results shown in Table 2 below were obtained.

Row | Structure (SMILES) | EC50 [µM]
1 | CCCc1cnc(N2CCC(C3Cc4cc(C5=CCN(S(=O)(=O)CCC)CC5)cc(F)c4O3)CC2)nc1 (racemic) [Example 5, (±)-2-(4-(7-Fluoro-5-(1-(propylsulfonyl)-1,2,3,6-tetrahydropyridin-4-yl)-2,3-dihydrobenzofuran-2-yl)piperidin-1-yl)-5-propylpyrimidine] | 0.0618
2 | CCCc1cnc(N2CCC(C3Cc4cc(C5=CCN(S(=O)(=O)CCCCO)CC5)cc(F)c4O3)CC2)nc1 (stereo not drawn) [Example 4, 4-(4-(7-Fluoro-2-(1-(5-propylpyrimidin-2-yl)piperidin-4-yl)-2,3-dihydrobenzofuran-5-yl)-5,6-dihydropyridin-1(2H)-ylsulfonyl)butan-1-ol] | 0.168
3 | CCCc1cnc(N2CCC(C3Cc4cc(N5CCN(S(=O)(=O)CCC)CC5)ccc4O3)CC2)nc1 (stereo not drawn) [Example 9, 5-Propyl-2-(4-(5-(4-(propylsulfonyl)piperazin-1-yl)-2,3-dihydrobenzofuran-2-yl)piperidin-1-yl)pyrimidine] | 1.06
4 | CCCS(=O)(=O)N1CC=C(c2ccc3c(c2)CC(C2CCN(C(=O)OC4CCCCC4)CC2)O3)CC1 (stereo not drawn) [Example 44] | 0.0097

Same assay, conditions: Flp-In-T-Rex-HEK293 cells, tetracycline-induced receptor expression; cAMP accumulation after 50 min at 37° C.; read-out: GPR119 EC50

Row | Structure (SMILES) | EC50 [µM]
5 | CC1(C2CCN(c3ncc(C4CC4)cn3)CC2)Cc2cc(C3=CCN(S(=O)(=O)CCCCO)CC3)ccc2O1 (stereo not drawn) [Example 11, 4-(4-(2-(1-(5-Cyclopropylpyrimidin-2-yl)piperidin-4-yl)-2-methyl-2,3-dihydrobenzofuran-5-yl)-5,6-dihydropyridin-1(2H)-ylsulfonyl)butan-1-ol] | 0.0089
6 | CCCS(=O)(=O)N1CCC(C2Cc3cc(C4=CCN(S(C)(=O)=O)CC4)ccc3O2)CC1 (stereo not drawn) [Example 21] | 2.43
7 | CCCS(=O)(=O)N1CC=C(c2cc(F)c3c(c2)CC(C2CCN(c4ncc(Cl)cn4)CC2)O3)CC1 (stereo not drawn) [Example 39] | 0.0031
8 | CC(C)CS(=O)(=O)N1CC=C(c2cc(F)c3c(c2)CC(C2CCN(c4ncc(Cl)cn4)CC2)O3)CC1 (stereo not drawn) [Example 40] | 0.0034
9 | CCCS(=O)(=O)N1CC=C(c2ccc3c(c2)CC(C2CCN(c4ccc(Cl)cn4)CC2)O3)CC1 (stereo not drawn) [Example 41] | 0.0827
